Consider 17 compounds from patent US20230212163A1, “2-(HET)ARYL-SUBSTITUTED CONDENSED HETEROCYCLIC DERIVATIVES AS PEST CONTROL AGENTS” (Bayer Aktiengesellschaft, priority 2020, published 2023).

The nature of data set [1]: logP by HPLC on reversed-phase column (C18). The note with it: LC-UV. It counts as physicochemical. As to the method: The logP values were determined according to EEC Directive 79/831 Annex V.A8 by HPLC (high-performance liquid chromatography) on a reversed-phase column (C18) using the following methods: ^[a]The logP value is determined by LC-UV measurement in the acidic range using 0.9 ml/l formic acid in water and 1.0 ml/l formic acid in acetonitrile as mobile phases (linear gradient from 10% acetonitrile to 95% acetonitrile). ^[b]The logP value is determined by LC-UV measurement in the neutral range using 0.001 molar ammonium acetate solution in water and acetonitrile as mobile phases (linear gradient from 10% acetonitrile to 95% acetonitrile). Calibration was carried out using straight-chain alkan-2-ones (having 3 to 16 carbon atoms) with known logP values. The values between successive alkanones are determined by linear regression.

The test system of data set [2] is Myzus persicae. The data set is described as follows: Myzus persicae oral test. In kind it is in vivo. The note with it: 120 h, application rate 4 ppm, after 5 days, read-out: efficacy. As to the method: [table] To produce a suitable active compound formulation, 1 part by weight of active compound is dissolved using the specified parts by weight of solvent and made up with water until the desired concentration is attained. 50 μl of the active compound formulation are transferred into microtitre plates and made up to a final volume of 200 μl with 150 μl of IPL41 insect medium (33%+15% sugar). Subsequently, the plates are sealed with parafilm, which a mixed population of green peach aphids (Myzus persicae) within a second microtitre plate is able to puncture and imbibe the solution through. After 5 days, the efficacy in % is determined. 100% means that all the aphids have been killed; 0% means that no aphids have been killed.

The subject of data set [3] is Phaedon cochleariae. The data set is described as follows: Phaedon cochleariae spray test. It counts as in vivo. The note with it: application rate 100 g/ha, after 7 days. The method, then:
(§1) [table] To produce a suitable active compound formulation, 1 part by weight of active compound is dissolved using the stated parts by weight of solvent and made up with water containing an emulsifier concentration of 1000 ppm until the desired concentration is attained. To produce further test concentrations, the formulation is diluted with emulsifier-containing water. Discs of Chinese cabbage leaves (Brassica pekinensis) are sprayed with an active compound formulation of the desired concentration and, after drying, populated with larvae of the mustard beetle (Phaedon cochleariae). After 7 days, the efficacy in % is determined. 100% means that all the beetle larvae have been killed; 0% means that no beetle larvae have been killed.

The test system of data set [4] is Spodoptera frugiperda. The data set is described as follows: Spodoptera frugiperda spray test (maize leaf discs). In kind it is in vivo. The note with it: application rate 100 g/ha, after 7 days; for pest or weed control at 100 g/ha: Spodoptera frugiperda, foliar, 168 h. The method, then: as §1, with “water. Leaf discs” for “water. Discs”, “of maize (Zea mays)” for “of Chinese cabbage leaves (Brassica pekinensis)”, “with caterpillars” for “with larvae”, “the fall armyworm (Spodoptera frugiperda).” for “the mustard beetle (Phaedon cochleariae).”, “the caterpillars” for “the beetle larvae”, “no caterpillar has” for “no beetle larvae have”

Data set [5] relates to Diabrotica balteata. Put plainly: Diabrotica balteata spray test. It counts as in vivo. The note with it: after 7 days; for pest or weed control at 31.25 g/ha / pest or weed control at 125 g/ha / pest or weed control at 500 g/ha / pest or weed control at 100 g/ha / pest or weed control at 20 g/ha: Diabrotica balteata, 168 h; for pest or weed control at 31.25 g/ha: application rate 31.25 g/ha (=10 μg/cavity); for pest or weed control at 31.25 g/ha / pest or weed control at 125 g/ha / pest or weed control at 500 g/ha: read-out: efficacy; for pest or weed control at 125 g/ha: application rate 125 g/ha (=40 μg/cavity); for pest or weed control at 500 g/ha: application rate 500 g/ha (=160 μg/cavity); for pest or weed control at 20 g/ha: application rate 20 g/ha. The method, then:
[table] To produce a suitable active compound formulation, 1 part by weight of active compound is dissolved using the stated parts by weight of solvent and made up with water containing an emulsifier concentration of 1000 ppm until the desired concentration is attained. To produce further test concentrations, the formulation is diluted with emulsifier-containing water. Pre-swollen wheat grains (Triticum aestivum) are incubated in a multiwell plate filled with agar and a little water for one day (5 seed grains per cavity). The germinated wheat grains are sprayed with an active compound formulation of the desired concentration. Subsequently, each cavity is infected with 10-20 beetle larvae of Diabrotica balteata. After 7 days, the efficacy in % is determined. 100% means that all wheat plants have grown as in the untreated, uninfected control; 0% means that no wheat plant has grown.

The subject of data set [6] is Nezara viridula. The data set is described as follows: Nezara viridula spray test. The note with it: application rate 500 g/ha, after 4 days; for pest or weed control at 500 g/ha: Nezara viridula, 96 h. It counts as in vivo. The method, then:
[table] To produce a suitable active compound formulation, 1 part by weight of active compound is dissolved using the stated parts by weight of solvent and made up with water containing an emulsifier concentration of 1000 ppm until the desired concentration is attained. To produce further test concentrations, the formulation is diluted with emulsifier-containing water. Barley plants (Hordeum vulgare) are sprayed with an active compound formulation of the desired concentration and are infected with larvae of the Southern green shield bug (Nezara viridula). After 4 days, the efficacy in % is determined. 100% means that all of the shield bugs have been killed; 0% means that none of the shield bugs have been killed.

The mark [7] stands for this setting: neutral range, ammonium acetate/acetonitrile, read-out: logP (neutral).

The structures appear in SMILES notation. Like-named read-outs stand apart in the source and are kept apart here.

`O=S(=O)(c1ccc2oc(-c3nc(F)ccc3F)nc2c1)C(F)(F)F` [2-(3,6-Difluoro-2-pyridyl)-5-(trifluoromethylsulfonyl)-1,3-benzoxazole]: the chromatographic logP in data set [1] (setting [7]) was determined as 3.06.

Consider `CCSc1ccc(F)nc1-c1nc2cc(S(=O)(=O)C(F)(F)F)ccc2o1` [2-(3-Ethylsulfanyl-6-fluoro-2-pyridyl)-5-(trifluoromethylsulfonyl)-1,3-benzoxazole], for which the chromatographic logP in data set [1] (acidic range, formic acid in water/acetonitrile, read-out: logP (acidic)) amounted to 4.13.

With `CCS(=O)(=O)c1ccc(F)nc1-c1nc2cc(S(=O)(=O)C(F)(F)F)ccc2o1` [2-(3-Ethylsulfonyl-6-fluoro-2-pyridyl)-5-(trifluoromethylsulfonyl)-1,3-benzoxazole], the chromatographic logP in data set [1] (setting [7]) turned out to be 3.11.

As for `CCS(=O)(=O)c1ccc(N2N=CC(c3ccccc3)C2=O)nc1-c1nc2cc(S(=O)(=O)C(F)(F)F)ccc2o1` (centres unmarked) [Example I-01], in data set [2], the pest or weed control at 4 ppm is 100%. In data set [3], this compound displayed an activity of 100%. This compound also returned a pest or weed control at 100 g/ha in data set [4] of 100%.

Consider `CCS(=O)(=O)c1ccc(-n2ncn(-c3ccc(Br)cc3)c2=O)nc1-c1nc2cc(S(=O)(=O)C(F)(F)F)ccc2o1` [Example I-05], for which, in data set [2], the pest or weed control at 4 ppm is 100%. In addition, in data set [5], the pest or weed control at 31.25 g/ha amounted to 100%, the pest or weed control at 125 g/ha stood at 100% and the pest or weed control at 500 g/ha amounted to 100%. In data set [4], this compound showed a pest or weed control at 100 g/ha of 100%.

On to `CCS(=O)(=O)c1ccc(-n2ncn(-c3ccc(C#N)cc3)c2=O)nc1-c1nc2cc(S(=O)(=O)C(F)(F)F)ccc2o1` [Example I-06], for which, in data set [2], the pest or weed control at 4 ppm worked out at 90%. Moreover, in data set [5], the pest or weed control at 31.25 g/ha came out at 100%, the pest or weed control at 125 g/ha worked out at 100% and the pest or weed control at 500 g/ha stood at 100%. For the same compound, the pest or weed control at 100 g/ha in data set [4] was 100%.

Regarding `CCS(=O)(=O)c1ccc(-n2ncn(-c3cccc(F)c3)c2=O)nc1-c1nc2cc(S(=O)(=O)C(F)(F)F)ccc2o1` [Example I-14, 2-[5-Ethylsulfonyl-6-[5-(trifluoromethylsulfonyl)-1,3-benzoxazol-2-yl]-2-pyridyl]-4-(3-fluorophenyl)-1,2,4-triazol-3-one], the pest or weed control at 4 ppm in data set [2] turned out to be 90%. For the same compound, the pest or weed control at 100 g/ha in data set [5] (application rate 100 g/ha) and in data set [4] was 100% in each case. Moreover, the pest or weed control at 500 g/ha in data set [5] is 100%. Further, the chromatographic logP in data set [1] (setting [7]) is 3.43.

As for `CCS(=O)(=O)c1ccc(-n2ncn(-c3cccc(I)c3)c2=O)nc1-c1nc2cc(S(=O)(=O)C(F)(F)F)ccc2o1` [Example I-16], the pest or weed control at 4 ppm in data set [2] was 90%. Moreover, the pest or weed control at 100 g/ha in data set [5] (application rate 100 g/ha) and in data set [4] was 100% each time. Further, the pest or weed control at 500 g/ha in data set [5] was determined as 100%.

With `CCS(=O)(=O)c1ccc(-n2ncn(C3CC3C(F)(F)F)c2=O)nc1-c1nc2cc(S(=O)(=O)C(F)(F)F)ccc2o1` (centres unmarked) [Example I-39], the pest or weed control at 100 g/ha in data set [5] (application rate 100 g/ha) and in data set [4] was 100% throughout. Further, in data set [6], the pest or weed control at 500 g/ha amounted to 100%.

In turn, `CCS(=O)(=O)c1ccc(-n2ncn(-c3cccc(Cl)c3)c2=O)nc1-c1nc2cc(S(=O)(=O)C(F)(F)C(F)(F)F)ccc2o1` [Example I-41] displayed a pest or weed control at 20 g/ha in data set [5] of 100%. The pest or weed control at 100 g/ha in data set [5] (application rate 100 g/ha) and in data set [4] was 100% in each case. In data set [6], this compound yielded a pest or weed control at 500 g/ha of 100%.

Turning to `CCS(=O)(=O)c1ccc(-n2ncn(-c3cccc(Cl)c3)c2=O)nc1-c1nc2cc(S(=O)(=O)C(F)(F)C(F)(F)F)ccc2o1` [Example I-42], the activity in data set [5] (application rate 100 g/ha) is given as 80%; in data set [6], 90%; in data set [4], 100%.

Turning to `CCS(=O)(=O)c1ccc(-n2ncn(-c3cccc(Br)c3)c2=O)nc1-c1nc2cc(C(F)(F)C(F)(F)F)ccc2o1` [Example I-44], the pest or weed control at 20 g/ha in data set [5] came out at 80%. Also, the pest or weed control at 100 g/ha in data set [5] (application rate 100 g/ha) and in data set [4] was 100% in each case. This compound also showed a pest or weed control at 500 g/ha in data set [6] of 100%.

The compound `CCS(=O)(=O)c1ccc(-n2ncn(-c3ccc(Cl)cc3)c2=O)nc1-c1nc2cc(C(F)(F)C(F)(F)F)ccc2o1` [Example I-45] displayed a pest or weed control at 20 g/ha in data set [5] of 80%. For the same compound, the pest or weed control at 100 g/ha in data set [5] (application rate 100 g/ha) and in data set [4] was 100% in each case. Besides, the pest or weed control at 500 g/ha in data set [6] was determined as 100%.

In turn, `CCS(=O)(=O)c1ccc(-n2ncn(-c3cccc(Cl)c3)c2=O)nc1-c1nc2cc(C(F)(F)C(F)(F)F)ccc2o1` [Example I-46] displayed a pest or weed control at 20 g/ha in data set [5] of 100%. Further, the pest or weed control at 100 g/ha in data set [5] (application rate 100 g/ha) was determined as 80%; in data set [4], 100%. Further, in data set [6], the pest or weed control at 500 g/ha is 90%.

In data set [5], `CCS(=O)(=O)c1ccc(-n2ncn(-c3cccc(F)c3)c2=O)nc1-c1nc2cc(C(F)(F)C(F)(F)F)ccc2o1` [Example I-47] came in with a pest or weed control at 20 g/ha of 80%. Moreover, the pest or weed control at 100 g/ha worked out at 80% in data set [5] (application rate 100 g/ha) and 100% in data set [4]. The compound further yielded a pest or weed control at 500 g/ha in data set [6] of 100%.

In the case of `CCS(=O)(=O)c1ccc(-n2ncn(-c3ccc(F)cc3)c2=O)nc1-c1nc2cc(S(=O)(=O)C(F)(F)C(F)(F)F)ccc2o1` [Example I-52], the pest or weed control at 20 g/ha in data set [5] worked out at 100%. The pest or weed control at 100 g/ha in data set [5] (application rate 100 g/ha) and in data set [4] was 100% each time. In data set [6], this compound came in with a pest or weed control at 500 g/ha of 100%.

`CCS(=O)(=O)c1ccc(-n2ncn(-c3ccc(F)cc3)c2=O)nc1-c1nc2cc(C(F)(F)C(F)(F)F)ccc2o1` [Example I-56] came in with a pest or weed control at 20 g/ha in data set [5] of 100%. For the same compound, the pest or weed control at 100 g/ha in data set [5] (application rate 100 g/ha) and in data set [4] was 100% in each case. In data set [6], this compound displayed a pest or weed control at 500 g/ha of 100%.
